Laboratory results published in patent publication US5268386A, “Certain 3,4-dihydro 4-oxospiro [2H-1 benzopyrans] useful for treating hyperuricemia” (Shionogi & Co., Ltd., priority 1989, dated 1993).

These compounds were tested on uric acid clearance (assay: Accelerated uric acid clearance in rats caused by administration of compound (I)). Settings: dose 10 mg/kg intraperitoneal; male rats; mean of four measurements minus control value.
Format: in vivo
Source text: Accelerated uric acid clearance in rats caused by administration of compound (I).
Nine-week-old male rats were employed for the test. As a pre-treatment for measuring uric acid clearance and inulin clearance, each animal was anesthetized with pentobarbital sodium, and canulae were placed into the right femoral artery (for blood collection), left femoral vein (for drug infusion), and urinary bladder (for urine collection) of each animal. 60% Urethane was subcutaneously administered to each animal at a dose of 2 ml/kg body weight and then 1.7% potassium oxonate/1.5% inulin/4% mannitol/0.9% saline solution was intravenously administered. After that, 0.5% pottasium oxonate/4% mannitol/1.5% inulin/0.9% saline was infused to each animal at a flow rate of 0.05 ml per minute on a hot plate kept at 30° C. Thirty minutes later, 0.9% saline was intraperitonealy administered at 4 ml/kg body weight. After the equilibrium for another 30 minutes, arterial blood (0.2 ml each) samples were collected 6 times at every 20 minute interval and five 20-minute urine samples were collected. Immediately after the collection of every blood sample, the serum was separated therefrom, and the serum samples and the urine samples were stored in a refrigerator.
Immediately after the first collection of the urine sample, the test compound suspended in 1% gum arabic was intraperitoneally administered at 2 ml/kg body weight.
Uric acid both in the serum and in the urine was quantitatively analyzed by the method of Yonetani et al's. [Yonetani, Y.; Ishii, M.; Iwaki, K., Japanese J. Pharmacology 30, 829-840 (1980).] Inulin was also done substantially by the method of Vurek's and Pegram's [Vurek, G G., Pegram, S.E., Anal.Biochem., 16, 409-419 (1966}]. In order to analyze uric acid, 0.2 ml of diluted solution of deproteinized serum or urine was admixed with 2.5 ml of 0.4% dimedon/orthphosphoric acid solution and the resulting mixture was heated in a hot bath for 5 minutes. The mixture was then cooled in ice-cold water and the fluorescence was measured at 400 nm in the excitation wave length at 360 nm. Control experiments were carried out using an equivalent amount of positive control compounds, ([5-chloro-3-(2-methylphenyl)-4-oxo-4H-1-benzopyran-7-yl] oxy)acetic acid and benzbromarone.
a) Increment of urinary uric acid was calculated by subtracting the control value from the mean value of four measurements after the administration of test compound.
b) Increment of fractional excretion of uric acid [Uric acid clearance/inulin clearance (i.e., glomerular filtration rate)] was calculated by subtracting the control value from the mean value of four measurements after the administration of test compound.
For `O=C(O)COc1cc(Cl)c2c(c1Cl)OC1(CCCCC1)CC2=O` [Example 11], the “ΔUuaV (increment of urinary uric acid)” value was 0.022 mg/kg-min.
For `COc1cc(OCC(=O)O)cc2c1C(=O)CC1(CCCCC1)O2` [Example 21, {(5-Methoxy-3,4-dihydro-4-oxospiro[2H-1-benzopyran-2,1'-cyclohexan]-7-yl)oxy}acetic acid], the “ΔUuaV (increment of urinary uric acid)” value was 0.046 mg/kg-min.
With `CCOc1cc(OCC(=O)O)cc2c1C(=O)CC1(CCCCC1)O2` [Example 22] the “ΔUuaV (increment of urinary uric acid)” value was 0.029 mg/kg-min.
In the case of `O=C(O)COc1cc(OCc2ccccc2)c2c(c1)OC1(CCCCC1)CC2=O` [Example 23], the “ΔUuaV (increment of urinary uric acid)” value is reported as 0.051 mg/kg-min.
For `CC(C)Oc1cc(OCC(=O)O)cc2c1C(=O)CC1(CCCCC1)O2` [Example 24], the “ΔUuaV (increment of urinary uric acid)” value was 0.024 mg/kg-min.
For `C=CCOc1cc(OCC(=O)O)cc2c1C(=O)CC1(CCCCC1)O2` [Example 25], the “ΔUuaV (increment of urinary uric acid)” value was 0.043 mg/kg-min.
With `COc1cc(OCC(=O)O)cc2c1C(=O)C(C)C1(CCCCC1)O2` (stereo not shown) [Example 30] the “ΔUuaV (increment of urinary uric acid)” value was 0.036 mg/kg-min.
With `COc1c(OCC(=O)O)ccc2c1OC1(CCCCC1)CC2=O` [Example 34] the “ΔUuaV (increment of urinary uric acid)” value was 0.040 mg/kg-min.
For `O=C(O)COc1cc(O)c2c(c1)SC1(CCCCC1)CC2=O` [Example 49, 2-{(5-Hydroxy-3,4-dihydro-4-oxospiro[2H-1-benzothiine-2,1'-cyclohexan]-7-yl)oxy}acetic acid], the “ΔUuaV (increment of urinary uric acid)” value was 0.082 mg/kg-min.
`COc1cc(OCC(=O)O)cc2c1C1(CC3(CCCCC3)O2)SCCS1` [Example 54, {(5-Methoxy-3,4-dihydrodispiro[2H-1-benzopyran-2,1'-cyclohexan-4,2"-[1,3]dithiolan]-7-yl)oxy}acetic acid] was tested, and the “ΔUuaV (increment of urinary uric acid)” value was 0.039 mg/kg-min.

Same assay, conditions: dose 25 mg/kg intraperitoneal; male rats; mean of four measurements minus control value
With `COc1cc(OCC(=O)OCn2ncc3c(=O)[nH]cnc32)cc2c1C(=O)CC1(CCCCC1)O2` [Example 61] the “ΔUuaV (increment of urinary uric acid)” value was -0.006 mg/kg-min.

Same assay, conditions: dose 50 mg/kg intraperitoneal; male rats; mean of four measurements minus control value
With `COc1cc(OCC(=O)O)cc2c1C(=O)CC(C)(C)O2` [Example 33] the “ΔUuaV (increment of urinary uric acid)” value was 0.047 mg/kg-min.

What follows are compounds tested against T1, xanthine oxidase (milk xanthine oxidase) (Bos taurus, UniProt P80457) (assay: Evaluation of xanthine oxidase inhibition activity). Settings: phosphate buffer pH=8, absorbance at 293 nm, 10 minutes, read-out: IC50 (50% inhibition rate).
T1 construct: purchased Boelinger Manheim; host or cells: milk
T1 sequence (P80457 whole entry): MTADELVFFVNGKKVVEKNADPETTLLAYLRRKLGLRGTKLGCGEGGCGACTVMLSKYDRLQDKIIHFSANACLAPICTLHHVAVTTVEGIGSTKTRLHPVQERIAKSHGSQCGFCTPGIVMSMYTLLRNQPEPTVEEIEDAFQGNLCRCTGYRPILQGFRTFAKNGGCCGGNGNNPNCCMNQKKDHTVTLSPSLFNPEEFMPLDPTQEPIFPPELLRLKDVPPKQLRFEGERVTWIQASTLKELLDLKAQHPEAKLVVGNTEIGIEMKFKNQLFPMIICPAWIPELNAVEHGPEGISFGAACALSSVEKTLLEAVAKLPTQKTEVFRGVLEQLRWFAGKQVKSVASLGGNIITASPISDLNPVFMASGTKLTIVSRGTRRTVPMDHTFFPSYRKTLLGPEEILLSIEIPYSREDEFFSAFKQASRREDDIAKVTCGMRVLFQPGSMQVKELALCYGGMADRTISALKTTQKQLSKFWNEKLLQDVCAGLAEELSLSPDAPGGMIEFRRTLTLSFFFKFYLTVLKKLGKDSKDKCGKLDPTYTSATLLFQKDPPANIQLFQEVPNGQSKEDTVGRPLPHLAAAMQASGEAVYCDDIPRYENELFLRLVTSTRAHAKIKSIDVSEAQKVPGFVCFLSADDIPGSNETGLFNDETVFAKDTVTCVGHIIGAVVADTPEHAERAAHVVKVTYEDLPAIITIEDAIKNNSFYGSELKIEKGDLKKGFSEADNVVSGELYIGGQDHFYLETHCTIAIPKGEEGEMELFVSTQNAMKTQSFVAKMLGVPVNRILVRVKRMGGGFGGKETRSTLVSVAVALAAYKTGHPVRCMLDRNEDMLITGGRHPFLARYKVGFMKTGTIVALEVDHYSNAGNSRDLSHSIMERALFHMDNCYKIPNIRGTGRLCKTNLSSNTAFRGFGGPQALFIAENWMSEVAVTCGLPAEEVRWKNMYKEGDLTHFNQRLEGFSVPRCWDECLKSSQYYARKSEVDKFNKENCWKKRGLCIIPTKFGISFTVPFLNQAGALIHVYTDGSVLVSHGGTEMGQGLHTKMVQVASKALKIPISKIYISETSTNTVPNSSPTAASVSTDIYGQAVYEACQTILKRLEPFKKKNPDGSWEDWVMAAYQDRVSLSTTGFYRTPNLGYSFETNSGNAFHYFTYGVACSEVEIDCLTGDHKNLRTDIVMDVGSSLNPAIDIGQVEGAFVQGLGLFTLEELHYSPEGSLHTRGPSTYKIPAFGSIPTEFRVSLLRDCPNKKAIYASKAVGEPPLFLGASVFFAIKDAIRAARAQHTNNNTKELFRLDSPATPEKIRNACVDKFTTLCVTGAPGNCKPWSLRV
Format: biochemical
Method: A mixture of 0.05M phosphate buffer (pH=8, 2 ml), 5.0×10^-4 M xanthine solution (0.5 ml), and an aqueous solution of a test compound (0.3 ml) was charged in a cell for the spectrophotometer. An aqueous solution of xanthine oxidase (200 times dilution, Boelinger Manheim, milk xanthine oxidase) (0.2 ml) was added to the mixture. The absorbance at 293 nm was measured before, and 10 minutes after, the addition of xanthine. The increase in the two measurements is attributable to the amount of synthesized uric acid. Control experiment was carried out using water instead of the test compound solution.
In the case of `COc1cc(OCC(=O)O)cc2c1C(=O)CC1(CCCCC1)O2` [Example 21, {(5-Methoxy-3,4-dihydro-4-oxospiro[2H-1-benzopyran-2,1'-cyclohexan]-7-yl)oxy}acetic acid], the IC50 is reported as 65 µM.
